# Measured values from the OPERA property sets (Mansouri et al. 2018).
# Settings: not given
Compound,boiling point,melting point,ready biodegradability,log10 vapour pressure (mmHg),log10 Henry constant (atm·m³/mol),log10 Koc (L/kg),log10 biodegradation half-life (days),log10 Koa
CCC1CCc2ccccc2C1 (configuration not stated),235 °C,-42.8 °C,,,,,,
O=C1/C(=C2\Nc3ccccc3C2=O)Nc2ccccc21,,,not readily biodegradable,,,,,
CN(C)c1cccc(C(=O)O)c1,,,not readily biodegradable,,,,,
C=C1COC2(OCCCO2)OC1,,,not readily biodegradable,,,,,
CCCCSSCCCC,,,,-1.2,,,,
Brc1cncc(Br)c1,222 °C,112 °C,,,,,,
CCCCCCCCCl,182 °C,-57.8 °C,readily biodegradable,-0.0223,,,,
Cl.N=C(N)SCc1ccccc1,,173 °C,,,,,,
C[Si](C)(Cl)O[Si](C)(C)O[Si](C)(C)Cl,184 °C,-53 °C,,,,,,
CCCC/C=C/CCCC,171 °C,-73 °C,,,,,,
Cc1cccc2ccccc12,245 °C,-30.4 °C,not readily biodegradable,-1.17,-3.29,3.36,0.962,
Nc1ccc(Cl)cc1Cl,245 °C,63.5 °C,not readily biodegradable,,,2.72,,
CCOC(OCC)OCC,143 °C,,,0.587,,,,
Nc1ccc(Cl)nc1Cl,,119 °C,,,,,,
CCOC(=O)C(=O)OCC,186 °C,-40.6 °C,readily biodegradable,-0.383,,,,
CON(C(=O)c1cc(C)oc1C)C1CCCCC1,,33 °C,,,,,,
ClC(Cl)C(Cl)(Cl)C(Cl)Cl,218 °C,,,,,,,
C#CC(O)c1ccccc1 (configuration not stated),,22 °C,,,,,,
Brc1c2ccccc2c(Br)c2ccccc12,,226 °C,,,,,,
O=C1[C@@H]2C[C@H](CN3CCCC[C@@H]23)[C@H]2CCCCN12,,111 °C,,,,,,
CC(=O)c1cccc(C)c1,220 °C,,,,,,,

Compound,boiling point,melting point,ready biodegradability,log10 vapour pressure (mmHg),log10 Henry constant (atm·m³/mol),log10 Koc (L/kg),log10 biodegradation half-life (days),log10 Koa
O=[N+]([O-])c1ccc(Cl)c(Cl)c1,256 °C,43 °C,not readily biodegradable,-1.99,-5.09,2.53,,
CC(=O)Nc1cccnc1,326 °C,133 °C,,,,,,
Cc1cnc2ccccc2c1,260 °C,16.5 °C,,,,,,
CCC1(CC)C(=O)CCNC1=O,,104 °C,,,,,,
C/C(=N/Nc1nc(C)cc(C)n1)c1ccccc1C,,176 °C,,-7.51,,,,
CC(=O)C1C(=O)C=C(C)OC1=O (configuration not stated),270 °C,109 °C,readily biodegradable,-2.9,,,,
O=[N+]([O-])C1CCCCC1,205 °C,-34 °C,,,,,,
C#CCl,-30 °C,-126 °C,,,,,,
CCC(O)CCl (configuration not stated),141 °C,,,,,,,
Clc1cccc(-c2ccccc2Cl)c1,,,,,-3.6,,,
Clc1cc(Cl)c(-c2ccccc2)c(Cl)c1Cl,,,,,-3.68,,,
Cc1cc(Cl)ccc1N=CN(C)C,,35 °C,,-3.03,,2.91,,
O=c1occcc1O,,93.8 °C,,,,,,
CCOC(=O)c1cccc2ccccc12,310 °C,,,,,,,
c1ccc(COCc2ccccc2)cc1,298 °C,3.6 °C,not readily biodegradable,-2.99,,,,
Clc1cc(Cl)cc(Br)c1,232 °C,83 °C,,,,,,
Cc1cc(C)c(C)c(C)c1C,232 °C,54.5 °C,,-1.46,,,,
CCCOCCC,90 °C,-122 °C,,1.8,-2.66,,,2.97
Cc1cc(C)oc(=O)c1,245 °C,51.5 °C,,,,,,
CCC(Br)(CC)C(=O)NC(=O)NC(C)=O,,109 °C,,,,,,
Clc1cccc2[nH]nnc12,,,,,,1.98,,

Compound,boiling point,melting point,ready biodegradability,log10 vapour pressure (mmHg),log10 Henry constant (atm·m³/mol),log10 Koc (L/kg),log10 biodegradation half-life (days),log10 Koa
COC(=O)c1c(C(F)F)nc(C(F)(F)F)c(C2=NCCS2)c1CC(C)C,,78 °C,,-5.65,,,,
Clc1ccc2c(c1)C(N1CCNCC1)=Nc1ccccc1O2,,176 °C,,,,,,
CC(C)(C)N(NC(=O)c1ccccc1)C(=O)c1ccc(Cl)cc1Cl,,134 °C,,,,,,
CC1(C)[C@H]2CC[C@]1(C)[C@H](O)C2,210 °C,,,,,,,
CC/C=C(\C)C(=O)O,214 °C,24.4 °C,,,,,,
O=C1C=CC(=Nc2ccc(O)cc2)C=C1,,160 °C,,,,,,
CC(=O)O[C@@H]1C[C@]2(O)[C@H](CC[C@]3(C)[C@@H](c4ccc(=O)oc4)CC[C@@]32O)[C@@]2(C)CC[C@H](O[C@@H]3O[C@H](CO)[C@@H](O)[C@H](O)[C@H]3O)C=C12,,169 °C,,,,,,
CC(CO)c1ccccc1 (configuration not stated),,-13 °C,,-1.72,,,,
CC(=O)Oc1cccc(C)c1,212 °C,12 °C,,,,,,
O=C(O)C(O)(O)C(O)(O)C(=O)O,,114 °C,,,,,,
CN(C)CCc1c[nH]c2ccccc12,,46 °C,,,,,,
CC1=CC2CC1C1C(=O)OC(=O)C21 (configuration not stated),,,not readily biodegradable,,,,,
Cc1ccccc1-c1ccccc1C,256 °C,19.5 °C,,,,,,
CC(O)CCl (configuration not stated),127 °C,,,0.69,,,,
OCCCCCCCCCO,,45.8 °C,,,,,,
CCCCCCC(Cl)Cl,191 °C,,,,,,,
CCCCCCCC(=O)OCC(COC(=O)CCCCCCC)OC(=O)CCCCCCC,,10 °C,,,,,,
CN1c2ccccc2Sc2ccc(CC(=O)O)cc21,,144 °C,,,,,,
O=C1C=CC(=O)c2c(O)cccc21,,155 °C,,,,,,
CCOC(=O)NC(C)(C)Cc1ccc(Cl)cc1,,52.8 °C,,,,,,
CC[C@H]1OC(=O)[C@H](C)[C@@H](O[C@@H]2O[C@H](C)C[C@H](N(C)C)[C@H]2O)[C@@H](C)C[C@@H](C)C(=O)C=C[C@]1(C)O,,196 °C,,,,,,

Compound,boiling point,melting point,ready biodegradability,log10 vapour pressure (mmHg),log10 Henry constant (atm·m³/mol),log10 Koc (L/kg),log10 biodegradation half-life (days),log10 Koa
C[Si]1(C)N[Si](C)(C)N[Si](C)(C)N1,188 °C,-10 °C,,,,,,
c1cnoc1,95 °C,,,1.66,,,,
C=C[Si](OC(C)C)(OC(C)C)OC(C)C,180 °C,,,,,,,
BrCOCBr,154 °C,-34 °C,,,,,,
SC(c1ccccc1)(c1ccccc1)c1ccccc1,,105 °C,,,,,,
CC(C)(C)c1cc(O)ccc1O,273 °C,128 °C,,,,,,
Cc1ccc(O)c(C(C)C)c1,228 °C,36.5 °C,,,,,,
CC/C=C\C(C)(C)C,,-137 °C,,,,,,
CCCCCCCCCCCC,216 °C,-9.6 °C,readily biodegradable,-0.87,,,1,
Nc1ccc(Cc2ccc(N)c(Cl)c2)cc1Cl,379 °C,110 °C,not readily biodegradable,,,,,
CC1=NN(c2cc(Cl)c(S(=O)(=O)O)cc2Cl)C(=O)C1,,,not readily biodegradable,,,,,
O=C(O)c1ccc2c(c1)OCO2,,229 °C,,,,,,
CC(C)OC(C)C,68.5 °C,-86.8 °C,not readily biodegradable,2.17,-2.59,,,2.66
O=Cc1cccc(Br)c1,234 °C,,,,,,,
OCC(Cc1ccccc1)c1ccccc1 (configuration not stated),310 °C,51 °C,,,,,,
CC1OC(=O)C(C)OC1=O (configuration not stated),,118 °C,,,,,,
O=COCCCc1ccccc1,250 °C,,,,,,,
NCCS(=O)(=O)O,,328 °C,,,,,,

# Same assay, conditions: fish
Compound,log10 BCF,log10 biotransformation half-life (days)
Cc1cccc2ccccc12,1.73,
Nc1ccc(Cl)cc1Cl,1.36,-0.65
O=[N+]([O-])c1ccc(Cl)c(Cl)c1,1.71,-0.27
c1ccc(COCc2ccccc2)cc1,2.43,0.63
CCCCCCCCCCCC,2.38,0.26
Nc1ccc(Cc2ccc(N)c(Cl)c2)cc1Cl,2.24,-0.15
CC1=NN(c2cc(Cl)c(S(=O)(=O)O)cc2Cl)C(=O)C1,1.51,
